Experimental findings from patent US20130096160A1, “ARYLTHIAZOLYL PIPERIDINES AND RELATED COMPOUNDS AS MODULATORS OF SURVIVAL MOTOR NEURON (SMN) PROTEIN PRODUCTION” (Secretary, Department of Health and Human Services, priority 2010, published 2013) are described below.

One data set is described as follows: in vitro. As to conditions: human, Caco-2. The class given is in vitro ADME. How it is done: CaCo-2 cells grown in tissue culture flasks are trypsinized, suspended in medium, and the suspensions are applied to wells of a collagen-coated BioCoat Cell Environment in 24-well format (BD Biosciences) at 24,500 cells per well. The cells are allowed to grow and differentiate for three weeks, feeding at 2-day intervals.
For Apical to Basolateral (A->B) permeability, the test agent is added at 50 μM to the apical (A) side and amount of permeation is determined on the basolateral (B) side; for Basolateral to Apical (B>A) permeability, the test agent is added at 50 μM to the B side and the amount of permeation is determine on the A side. The A-side buffer contains 100 μM Lucifer yellow dye, in Transport Buffer (1.98 g/L glucose in 10 mM HEPES, 1× Hank's Balanced Salt Solution) pH 6.5, and the B-side buffer is Transport Buffer, pH 7.4. CaCo-2 cells are incubated with these buffers for 2 h., and the receiver side buffer is removed for analysis by liquid chromatography-mass spectrometry (LC/MS/MS).
Additionally, several control compounds are tested in the identical assay.
To verify that CaCo-2 cell monolayers are properly formed, aliquots of the cell buffers are analyzed by fluorescence to determine the transport of the impermeable dye Lucifer Yellow.
Data are expressed as permeability (Papp): […]
where dQ/dt is the rate of permeation, C0 is the initial concentration of test agent, and A is the area of the monolayer.
In bidirectional permeability studies, the asymmetry index (AI) or efflux ratio is also calculated:
An AI>1 indicated a potential substrate for PGP or other active transporters.
Samples are analyzed by LC/MS/MS using either an Agilent 6410 mass spectrometer coupled with an Agilent 1200 high performance liquid chromatography (HPLC) and a CTC PAL chilled autosampler, all controlled by MassHunter software (Agilent), or an ABI2000 mass spectrometer coupled with an Agilent 1100 HPLC and a CTC PAL chilled autosampler, all controlled by Analyst software (ABI). After separation on a C18 reverse phase HPLC column (Agilent, Waters, or equivalent) using an acetonitrile-water gradient system, peaks are analyzed by mass spectrometry (MS) using electrospray ionization (ESI) in multiple reaction monitoring (MRM) mode.
The signal is optimized for each compound by ESI positive or negative ionization mode. A MS2 selected ion monitoring (SIM) scan is used to optimize the precursor ion and a product ion analysis is used to identify the best fragment for analysis and to optimize the collision energy.

A further data set deals with SMN2-luciferase reporter. Briefly: SMN2-luciferase reporter qHTS assay. The class given is cell-based, human. More on the design: key to Curve Class: A curve class of 1.1 is a full agonist/antagonist; a curve class of 4 indicates the compound is inactive. As to conditions: for Curve Class: agonist/antagonist character of the concentration-response, lower values = more significant concentration-response; for Increased SMN2 activity: percent increase (or decrease) in SMN2 levels compared to control in which no test compound is added. Summed up:
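SMN2 exon-7 splicing firefly-luciferase reporter cell line, ~2000 cells/well in phenol-red-free DMEM with 10% serum, allowed to adhere 10–12 h, then exposed to compounds for 2 days at 37 C, 5% CO2. Seven-point five-fold dilution series (e.g. 50 μM to 3.2 nM), OneGlo luminescence read, curves fitted to Hill equation.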

A further data set relates to human SMN protein. Briefly: Western blot of SMN protein in SMA patient fibroblasts (3813). The class given is cell-based. As to conditions: for SMN protein level versus dose (in words): different doses. As to the method:
Type I spinal muscular atrophy (SMA)-affected human primary fibroblasts (#GM03813) and carrier parents (#GM03814, parent and #GM03815, […]) are obtained live with low passage number from Coriell Cell Repositories. […] For detection of SMN protein in patient fibroblasts, 8,000 cells per cm^2 are plated 24 hours prior to drug addition. Fresh media and compound are added every 24 hours. After 72 hours, cells are harvested, washed with cold PBS, and lysed. Samples are subjected to polyacrylamide gel electrophoresis (PAGE). It is determined that 10 μg total protein per lane is within the linear range for immunoblot detection of SMN and alpha-tubulin. Western blots of the gel are probed for SMN with the 4B7 mouse monoclonal antibody (from the lab of Christian Lorson). A goat anti-mouse antibody (Santa Cruz Biotechnology/#sc-2005) conjugated to horseradish peroxidase (HRP) is used as the secondary antibody. Quantification of protein is performed by detecting chemiluminescence with a Fujifilm LAS-4000 Multifunctional Imaging System. […] We incubated a fibroblast cell line from a type I SMA patient (3813 cell line) with different doses of analogues and assessed the SMN protein level by quantitative western blotting (FIG. 4). We observed that analogue 8 m at concentration of 37 nanomolar increased the SMN protein level by 2-3 fold. […] This could be due with the intrinsic mechanism of action or to other causes, such us concentration dependent compound solubility.
(In western blotting, separated proteins are transferred to a membrane and probed.)

Data set [1] concerns SMN positive foci or gems in the nucleus. Briefly: Gem count in human type I SMA fibroblasts. As to conditions: 3 days, FIG. 5; for number of gems versus dose (in words): 37 nM-3000 nM. Type of data set: cell-based. From the text:
Furthermore, the increase in SMN protein production led us to explore whether the arylpiperidine analogues had effect of on the overall number of SMN positive foci or gems in the nucleus. This would corroborate that the increased protein amounts represent indeed functional SMN protein. SMN protein is predominately a cytoplasmic protein in the nucleous SMN which localized to in distinct punctuate bodies often referred to as gems (gemini of coiled [Cajal] bodies). There is a direct correlation between the number of gems and total SMN protein production in the cell. Gem counts are commonly used as another metric to score the amount total SMN protein expressed on a cell-to-cell basis. […] Only 3.3% of nuclei have gems in fibroblast cells from SMA type I patients (cell line 3813), while 24.8% of nuclei have gems in fibroblast from a carrier parent (3814 cell line). We treated human type I SMA fibroblasts with increasing doses (37 nM 3000 nM) of arylpiperidine analogues 8a, 8m, and 9a for 3 days and the number of gems per 100 nuclei were examined (FIG. 5). Analogue 8m treatment yielded more than 2 fold of increase of the number of the gems at low 37 nM dose.

In another data set the test system is SMN1-luciferase reporter. Nature of the data set: SMN1-luciferase reporter control cell line. As to conditions: SMN1-luc reporter, FIG. 1. Type of data set: cell-based, human. From the text:
A cell-based quantitative high throughput screening (qHTS) assay is used to identify compounds able to increase SMN production. The assay uses a SMN2-luciferase reporter to determine if exon 7 of the SMN gene is expressed, which correlates with increased full-length SMN production from the SMN2 gene. As controls, a homologue SMN1-luciferase reporter cell line looks for variations in expression of the SMN1 gene and a cell line with just the luciferase reporter looks at the capacity of the compounds to inhibit luciferase. In addition, increments in SMN production by lead compounds were confirmed by Western-Blot analysis using SMA patient fibroblasts.
The SMN reporters used herein are modified from those previously described (M. L. Zhang, C. L. Lorson, E. J. Androphy and J. Zhou, An in vivo reporter system for measuring increased inclusion of exon 7 in SMN2 mRNA: potential therapy of SMA, Gene Ther 8 (2001), pp. 1532-1538.)
The sequence of the SMN1 reporter vector used herein is given in SEQ ID NO.:1, while that of the SMN2 reporter vector is given in SEQ ID NO.:2. […]
(A reporter such as luciferase makes a cellular process visible.)

The mark [2] stands for this setting: 3813 fibroblasts, quantitative western blotting, FIG. 4.

By Papp A→B is commonly meant how fast a substance crosses the layer from the apical side. The compound `CNC(=C[N+](=O)[O-])NCCSCc1ccc(CN(C)C)o1` [Ranitidine, ranitidine, reference compound] came in with a Papp A→B at 2 h, 10 μM in “in vitro” of 0.42 ×10⁻⁶ cm/s.
Turning to `CSc1ccc(-c2cnc(N3CCC(C(N)=O)CC3)s2)cc1` [Example 134, 1-(5-(4-(Methylthio)Phenyl)Thiazol-2-yl)Piperidine-4-Carboxamide], in the data set on SMN2-luciferase reporter, the “Curve Class” value amounted to 1.1 and the “Increased SMN2 activity” value is on record as 576.1%. In addition, the “increase of SMN protein level” value in the data set on human SMN protein (3813 fibroblasts, quantitative western blotting, 37 nanomolar, FIG. 4) is listed as 2-3 fold. Besides, the “SMN protein level versus dose (in words)” value in the data set with human SMN protein (setting [2]) is reported as “decreased with the increasing of the drug concentration”. Further, in data set [1] (37 nM), the “increase of the number of the gems” value is “more than 2 fold”. For the same compound, in data set [1], the “number of gems versus dose (in words)” value was “With the concentration increased, the numbers of gems was reduced”.
`NC(=O)C1CCN(c2ncc(-c3ccc4c(c3)OCCCO4)s2)CC1` [Example 124, 1-(5-(3,4-Dihydro-2H-Benzo[B][1,4] Dioxepin-7-yl)Thiazol-2-yl)Piperidine-4-Carboxamide]: in the data set on SMN2-luciferase reporter, the “Curve Class” value is 1.1 and the “Increased SMN2 activity” value is recorded as 370.5%. For the same compound, the “number of gems versus dose (in words)” value in data set [1] is given as “didn't show any activity”.
Regarding `O=C(O)C1CCN(c2ncc(-c3ccc4c(c3)OCCCO4)s2)CC1` [Example 148, 1-(5-(3,4-Dihydro-2H-Benzo[B][1,4]Dioxepin-7-yl)Thiazol-2-yl)Piperidine-4-Carboxylic Acid], in the data set with SMN2-luciferase reporter, the “Curve Class” value was found to be 1.1 and the “Increased SMN2 activity” value is 325.6%. Also, the “SMN protein level versus dose (in words)” value with human SMN protein (setting [2]) is “dose-dependent trend between 37 nM to 1 μM concentration and a decrease of protein level at 3 μM”. Moreover, the “increase of the gem numbers” value in data set [1] (37 nM to 1000 nM) came out at 80%. Also, in data set [1], the “number of gems versus dose (in words)” value is “slightly decreased at 3000 nM”.
With `COc1nc(-c2ccccc2)nnc1-c1ccccc1` [MLS000763654], the “expression of SMN2 / levels of the full length SMN2 gene (in words)” value in the data set on SMN2-luciferase reporter (SMN2-luc reporter, FIG. 1) is “increases the expression of SMN2”. In the data set on human SMN protein (SMA patient cells (3813), 0.1-10 μM, FIG. 2), the “SMN protein by Western blot (in words)” value is reported as “concentration-dependent increase in SMN protein”. Moreover, the “expression of SMN1 (in words)” value in the data set with SMN1-luciferase reporter is reported as “reduces the expression of SMN1”.
Broadly, the Papp B→A is the apparent permeability from the basolateral to the apical side of a cell layer. Consider `CC(=O)CC(c1ccccc1)c1c(O)c2ccccc2oc1=O` (centres unmarked) [Warfarin, reference compound], for which, in the data set “in vitro”, the Papp A→B at 2 h, 10 μM was determined as 45.8 ×10⁻⁶ cm/s and the Papp B→A at 2 h, 10 μM amounted to 11.7 ×10⁻⁶ cm/s.
